In the NIST ThermoML archive (doi:10.1016/j.jct.2015.12.021):

Details: Liquid

CCCCCCCCCCCC [dodecane]
viscosity [mPa·s]
Details | 293.15 K | 313.15 K | 333.15 K | 353.15 K | 373.15 K
100 kPa, Vibrating wire viscometry | 1.491 | 1.064 | 0.8013 | 0.6281 | 0.5055
1000 kPa, Vibrating wire viscometry | 1.507 | 1.074 | 0.8127 | 0.6372 | 0.5149
5000 kPa, Falling or rolling sphere viscometry | – | 1.135 | 0.8518 | 0.6657 | –
5000 kPa, Vibrating wire viscometry | 1.586 | 1.124 | 0.855 | 0.6713 | 0.5392
10000 kPa, Falling or rolling sphere viscometry | – | 1.218 | 0.903 | 0.7047 | –
10000 kPa, Vibrating wire viscometry | 1.672 | 1.201 | 0.8975 | 0.7053 | 0.5743
20000 kPa, Falling or rolling sphere viscometry | – | – | 1.002 | 0.7791 | –
20000 kPa, Vibrating wire viscometry | 1.877 | 1.324 | 1.001 | 0.7819 | 0.6286
30000 kPa, Falling or rolling sphere viscometry | – | – | 1.112 | 0.8651 | –
30000 kPa, Vibrating wire viscometry | 2.084 | 1.476 | 1.095 | 0.8694 | 0.7003
40000 kPa, Falling or rolling sphere viscometry | – | – | 1.223 | 0.9597 | –
40000 kPa, Vibrating wire viscometry | 2.31 | 1.625 | 1.216 | 0.9528 | 0.7715
50000 kPa, Vibrating wire viscometry | 2.56 | 1.778 | 1.321 | 1.037 | 0.8425
60000 kPa, Falling or rolling sphere viscometry | – | – | – | 1.121 | –
60000 kPa, Vibrating wire viscometry | 2.822 | 1.946 | 1.44 | 1.123 | 0.91
70000 kPa, Vibrating wire viscometry | 3.112 | 2.129 | 1.576 | 1.213 | 0.9844
80000 kPa, Vibrating wire viscometry | 3.428 | 2.32 | 1.707 | 1.312 | 1.066
100000 kPa, Vibrating wire viscometry | 4.117 | 2.758 | 1.994 | 1.532 | 1.22
120000 kPa, Vibrating wire viscometry | 4.953 | 3.231 | 2.302 | 1.757 | 1.402
140000 kPa, Vibrating wire viscometry | 5.816 | 3.755 | 2.657 | 2.023 | 1.588

CCCCCCC [heptane]
viscosity [mPa·s]
Details | 293.15 K | 298.15 K | 313.15 K | 333.15 K | 353.15 K | 363.15 K
100 kPa, Vibrating wire viscometry | 0.4151 | 0.3914 | 0.3379 | 0.2821 | 0.2406 | 0.2224
1000 kPa, Vibrating wire viscometry | 0.4202 | 0.3962 | 0.3412 | 0.2844 | 0.2435 | 0.2254
5000 kPa, Falling or rolling sphere viscometry | 0.4359 | – | 0.3564 | – | – | –
5000 kPa, Vibrating wire viscometry | 0.4354 | 0.4142 | 0.354 | 0.2965 | 0.2549 | 0.2374
10000 kPa, Falling or rolling sphere viscometry | 0.4603 | – | 0.3756 | – | – | –
10000 kPa, Vibrating wire viscometry | 0.4579 | 0.4329 | 0.3735 | 0.3121 | 0.2672 | 0.2493
20000 kPa, Falling or rolling sphere viscometry | 0.5074 | – | 0.4131 | – | – | –
20000 kPa, Vibrating wire viscometry | 0.5013 | 0.4756 | 0.4074 | 0.3415 | 0.2957 | 0.2757
30000 kPa, Falling or rolling sphere viscometry | 0.5517 | – | 0.4518 | – | – | –
30000 kPa, Vibrating wire viscometry | 0.5459 | 0.5175 | 0.4462 | 0.3746 | 0.3216 | 0.2996
40000 kPa, Falling or rolling sphere viscometry | 0.5949 | – | 0.4899 | – | – | –
40000 kPa, Vibrating wire viscometry | 0.595 | 0.5613 | 0.4806 | 0.4061 | 0.3493 | 0.3252
50000 kPa, Vibrating wire viscometry | 0.6406 | 0.6081 | 0.5208 | 0.4355 | 0.373 | 0.3504
60000 kPa, Falling or rolling sphere viscometry | 0.6912 | – | 0.5683 | – | – | –
60000 kPa, Vibrating wire viscometry | 0.6927 | 0.6535 | 0.5563 | 0.4681 | 0.4019 | 0.3754
70000 kPa, Vibrating wire viscometry | 0.7446 | 0.7026 | 0.5992 | 0.5022 | 0.4304 | 0.3978
80000 kPa, Falling or rolling sphere viscometry | 0.7864 | – | 0.6498 | – | – | –
80000 kPa, Vibrating wire viscometry | 0.7965 | 0.7519 | 0.64 | 0.5337 | 0.457 | 0.4243
100000 kPa, Falling or rolling sphere viscometry | 0.9027 | – | 0.7309 | – | – | –
100000 kPa, Vibrating wire viscometry | 0.9106 | 0.8572 | 0.7259 | 0.603 | 0.5119 | 0.4782
120000 kPa, Falling or rolling sphere viscometry | 1.031 | – | 0.8186 | – | – | –
120000 kPa, Vibrating wire viscometry | 1.028 | 0.972 | 0.8176 | 0.6736 | 0.5735 | 0.5314
140000 kPa, Vibrating wire viscometry | 1.16 | 1.089 | 0.9137 | 0.7509 | 0.6335 | 0.5865

Cc1ccccc1 [toluene]
viscosity [mPa·s], Vibrating wire viscometry
Details | 293.15 K | 298.15 K | 313.15 K | 323.15 K | 333.15 K | 348.15 K | 353.15 K | 373.15 K
100 kPa | 0.5907 | 0.5555 | 0.469 | 0.4214 | 0.3804 | 0.3302 | 0.3163 | 0.2667
1000 kPa | 0.5928 | 0.5603 | 0.4746 | 0.4238 | 0.3856 | 0.3361 | 0.3177 | 0.2671
5000 kPa | 0.6152 | 0.5772 | 0.4885 | 0.4385 | 0.3986 | 0.3457 | 0.3319 | 0.2782
10000 kPa | 0.6387 | 0.6006 | 0.5046 | 0.4551 | 0.4153 | 0.3588 | 0.3449 | 0.2893
20000 kPa | 0.6881 | 0.6478 | 0.5496 | 0.4877 | 0.4495 | 0.3876 | 0.3701 | 0.315
30000 kPa | 0.7354 | 0.692 | 0.5914 | 0.5293 | 0.4794 | 0.418 | 0.4006 | 0.3401
40000 kPa | 0.7913 | 0.7442 | 0.6239 | 0.565 | 0.5135 | 0.4485 | 0.4291 | 0.3643
50000 kPa | 0.8532 | 0.7983 | 0.6704 | 0.6021 | 0.5485 | 0.4795 | 0.462 | 0.3876
60000 kPa | 0.908 | 0.8463 | 0.7133 | 0.6377 | 0.5835 | 0.5089 | 0.4919 | 0.4138
70000 kPa | 0.9632 | 0.9027 | 0.7572 | 0.6789 | 0.6187 | 0.5441 | 0.5176 | 0.4372
80000 kPa | 1.022 | 0.9625 | 0.8098 | 0.7322 | 0.6579 | 0.5721 | 0.5478 | 0.4649
100000 kPa | 1.149 | 1.081 | 0.9082 | 0.809 | 0.7353 | 0.6407 | 0.6113 | 0.5193
120000 kPa | 1.287 | 1.211 | 1.009 | 0.9034 | 0.8176 | 0.7088 | 0.6825 | –
140000 kPa | 1.456 | 1.349 | 1.128 | 1.004 | 0.9111 | 0.7836 | 0.755 | –
